This note sets out measurements from patent US10006030B2, “RNA interference compositions targeting heat shock protein 90 and methods of use thereof” (SILENSEED LTD., priority 2014, dated 2018).

d = 2'-deoxy (DNA); r = 2'-OH (RNA)

Data set [1] has as its system LNCaP cells. In words: methylene blue (MB) cell viability assay after siRNA transfection. Format: cell-based. The note with it: Lipofectamine 2000 transfection, 72 hours incubation, FIG. 1. Here is the method:
Prostate cancer cell line LNCaP (ATCC # CRL-1740) was grown in Roswell Park Memorial Institute medium (RPMI) supplemented with 10% fetal bovine serum (FBS) and 100 units/ml penicillin/streptomycin, according to the ATCC protocol. Cells were seeded into 96-well culture plates and incubated overnight before transfection with siRNAs targeting HSP90 sequences.
Cells were transfected using Lipofectamine® 2000 transfection reagent (Life Technologies) based on manufacturer's protocol, with siRNA targeting HSP90: HSP1-1 (sense strand SEQ ID NO: 4, anti-sense strand SEQ ID NO: 8), HSP1-2 (sense strand SEQ ID NO: 5, anti-sense strand SEQ ID NO: 9), and HSP1-3 (sense strand SEQ ID NO: 6, anti-sense strand SEQ ID NO: 10). Cells were also treated with HSP90 inhibitor NVP-AUY922 (or AUY922), a resorcinylicisoxazole amide was used at 5 nM and 10 nM (with similar effect), or left untreated. After 72 hours incubation, cellular viability was determined by standard methylene blue (MB) assay, and quantitated as percentage of viable cells in relation to the untreated sample (FIG. 1).

Data set [2] has as its system Androgen receptor. In words: AR-dependent luciferase reporter assay in transfected LNCaP cells. The data set is classed as cell-based. The note with it: co-transfection, 24 hours post-transfection, vs mock, p<0.05, FIG. 2. Here is the method: HPS90 is known to be a chaperone of AR (androgen receptor), and is necessary for correct AR post-translational processing. To further test RNAi targeting of HSP90, an AR-dependent luciferase reporter construct was used (FIG. 2). LNCaP cells were cultured as above, and were seeded onto a 48-well culture plate. After an overnight incubation, plated cells were co-transfected using Lipofectamine® 2000 transfection reagent (Life Technologies) based on manufacturer's protocol for DNA-RNA transfections with an AR-luciferase reporter plasmid (Qiagen, CCS-1019L), and siRNA targeting HSP90 (HSP1-1 (sense strand SEQ ID NO: 4, anti-sense strand SEQ ID NO: 8); AR (siAR-1), or a non-target scrambled siRNA (si-scr). Cells transfected only with the AR-luciferase reported plasmid served as the negative control (mock). 24 hours post-transfection, cells were lysed and luciferase activity determined with the Promega luciferase detection kit.
For orientation: In a reporter assay the amount or activity of a reporter protein is the signal.

Take “HSP1-1: siRNA targeting HSP90, sense strand SEQ ID NO: 4, anti-sense strand SEQ ID NO: 8 (sense 5'-AAG ACC AAC CGA UGG AGGAdTdT-3'; antisense 5'-UCC UCC AUC GGU UGG UCUUdTdT-3; as printed in the source, key not given here)”: the “cellular viability (percentage of viable cells in relation to the untreated sample)” value in data set [1] was “statistically significant decrease”. For the same substance, the “luciferase activity of AR-luciferase reporter plasmid” value in data set [2] is “significantly decreased”.
As for “HSP1-2: siRNA targeting HSP90, sense strand SEQ ID NO: 5, anti-sense strand SEQ ID NO: 9 (sense AAGAGCUGCAUAUUAACCUTT; antisense AGGUUAAUAUGCAGCUCUUTT; sugars from the 5' end r19 d2, backbone not given here)”, the “cellular viability (percentage of viable cells in relation to the untreated sample)” value in data set [1] is recorded as “statistically significant decrease”.
As for “HSP1-3: siRNA targeting HSP90, sense strand SEQ ID NO: 6, anti-sense strand SEQ ID NO: 10 (sense AAGUCUGGGACCAAAGCGUTT; antisense ACGCUUUGGUCCCAGACUUTT; sugars from the 5' end r19 d2, backbone not given here)”, the “cellular viability (percentage of viable cells in relation to the untreated sample)” value in data set [1] is given as “statistically significant decrease”.
